≈ marks a conversion by molar mass, not a printed value. Read-outs that look alike come from different tables or passages of the source.
Experiments:
[1] = Body weight and deaths during treatment in the xenograft study
Method: The animals were treated with the test products for 21 days.
When average tumor size reached 100-200 mM^3 the animals were subdivided into experimental groups and treatment with the test drugs was started. The products were administered intragastrically daily, while the control group received the solvent.
Also, health and behavior of animals were monitored, numbers of lethal outcomes and tumor regressions were recorded: Regression=(Vini−Vfin)/Vi×100%,
Measurement of animal weights was carried out 3 times a week.

MEK1 = molecular target: T1, MEK1 (Homo sapiens, UniProt Q02750); assay: MEK1 kinase activity, Z'-LYTE screening platform; assay type: biochemical; conditions: 100 μM ATP, 1% DMSO
T1 construct: purchased Life Technologies
Method: Assay. The substances were tested for the effect on MEK1 kinase activity using Z′-LYTE screening platform (Life Technologies). Concentration of DMSO in the reaction mixture was 1%. Dilute 100 nL of 100-fold sinks of the substances under study in 100% DMSO in 2.4 μL of kinase buffer (50 mM of HEPES pH 7.5, 0.01% BRIJ-35, 10 mM of mgCl2, 1 mM of EGTA) and add to 5 μL of 2-fold Substrate/Kinase mixture (MEK1/inactivated MARK1 (ERK2)/Ser/Thr03, final content 0.08-0.31 ng of MEK1, 105 ng of inactivated MARK1 (ERK2), and 2 μM of Ser/Thr03) in 384-well plate (black, small-volume manufactured by Corning, κaT. #3676). Pre-incubate the substances with kinases for 10 min at ambient temperature. After that add 2.5 μL of 4-fold ATP solution to start the reaction (final concentration of ATP in the reaction mixture is 100 μM). After 30 sec of incubation on a shaker incubate the reaction for 60 min at ambient temperature. Then add 5 μL of Reagent B (Life Technologies) diluted as 1:1024 and incubate for 60 min more at ambient temperature. Measure fluorescence with excitation at 400 nm and emission at 445 nm and 520 nM.
Calculate % phosphorylation as follows:
Calculate % inhibition as follows:
C100%=average coumarin emission signal, 100% phosphorylation control;
C0%=average coumarin emission signal, 0% phosphorylation control;
F100%=average fluorescein emission signal, 100% phosphorylation control; […]

[2] = Determination of thermodynamic solubility; assay type: physicochemical; conditions: for solubility at 24 h: 25 °C, thermodynamic from solid
Method: Use additional quantities of the substances until the solution becomes turbid. Incubate vials with the solution for 24 h at 25° C. with mixing to achieve equilibrium between saturated solution and precipitate. Upon equilibration filter 200 μL of the solution (in duplicate) through a 96-well filter plate (Millipore) to separate the precipitate. Determine concentrations of the compounds in the filtrate by spectrophotometry using standard calibration curve. Carry out measurement of optical absorption spectrum of the substance and plot calibration curve at the selected wavelength (usually corresponding to the substance absorption maximum λmax). Calculate concentration of the substance in the filtrate (i.e., solubility) by the following equation: Solubility=(ODλmax filtrate−ODλmax blank)/Slope×1.67×Filtrate dilution,
ODλmax filtrate=absorbance of the filtrate:
ODλmax blank=absorbance of the blank solution without the substance;
Slope=slope of the calibration curve;
1.67=dilution factor for the filtrate in acetonitrile;
Filtrate dilution=dilution factor for the filtrate in the buffer.

[3] = test system: A375 human melanoma xenograft; assay: Study of efficiency in human melanoma xenograft model; assay type: in vivo, NMRI nude female mice; conditions: for T/C / Vavg (average tumor volume): after 21 days of treatment
Method: Study of efficiency in human melanoma xenograft model. The study was carried out in ProQinase GmbH Freiburg, Breisacher Str. 117, D-79106 Freiburg, GERMANY.
A375 human melanoma cells were cultivated in vials with DMEM medium with addition of 10% FBS in a humid atmosphere containing 95% of air and 5% of CO2 at 37° C. Cancer cells were passaged to animals after an adaptation period. For that end the cells were collected using TrypLE Express (Invitrogen), washed and suspended in sterile PBS to the final concentration of 3×10^7 cells/mL. This cell suspension was injected subcutaneously (SC) in mice left flanks (3×10^6 cells or 100 μL per mouse).
Measurement of subcutaneously implanted tumors was carried out 2 times a week starting from the day of cells introduction. Tumor volume (mm^3) was determined by the equation: V=L×W^2/2,
where L corresponds to maximum and W to minimum tumor diameter (mm). The measurements were carried out using a slide caliper.
The study included calculation of tumor growth inhibition values: T/C=Vexp/Vctrl×100%,
Vctrl=average tumor volume in the control group;
Vexp=average tumor volume in the experimental group.
Vini=initial tumor volume at the start of treatment;
Vfin=tumor volume at the end of treatment.

[4] = single-dose oral, mice; cited from earlier work
[5] = cited from earlier work
[6] = 4% dimethyl sulfoxide and 96% corn oil, oil or lipid, 4% dimethyl sulfoxide, 96% corn oil, read-out: Solubility in a mixture of 4% sulfoxide and 96% corn oil
[7] = dimethyl sulfoxide, organic solvent or mixture, read-out: Solubility in dimethyl sulfoxide
[8] = water, water, read-out: Solubility in water
[9] = 0.3 mg/kg intragastrically daily
[10] = 1.0 mg/kg intragastrically daily
[11] = 3.0 mg/kg intragastrically daily
[12] = 10.0 mg/kg intragastrically daily

T1 sequence (Q02750 whole entry): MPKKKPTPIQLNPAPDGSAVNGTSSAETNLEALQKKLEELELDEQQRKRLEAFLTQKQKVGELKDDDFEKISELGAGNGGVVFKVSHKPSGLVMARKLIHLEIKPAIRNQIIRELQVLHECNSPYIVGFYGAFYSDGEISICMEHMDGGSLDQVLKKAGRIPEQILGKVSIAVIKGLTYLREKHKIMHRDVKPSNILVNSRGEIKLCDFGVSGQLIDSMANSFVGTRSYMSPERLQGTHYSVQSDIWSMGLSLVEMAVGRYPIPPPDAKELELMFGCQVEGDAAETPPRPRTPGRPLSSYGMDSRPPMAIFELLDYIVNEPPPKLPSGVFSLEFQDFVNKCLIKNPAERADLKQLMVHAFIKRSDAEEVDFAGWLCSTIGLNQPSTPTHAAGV

SMILES: Cc1c(=O)n(C)c(Nc2ccc(I)cc2F)c2c(=O)n(C3CC3)c(=O)n(-c3cccc(NC(=O)C4CC4)c3)c12 [Compound of formula 1, N-{3-[3-cyclopropyl-5-(2-fluoro-4-iodophenylamino)-6,8-dimethyl-2,4,7-trioxo-3,4,6,7-tetrahydro-2H-pyrido[4,3-d]pyrimidin-1-yl]-phenyl}-cyclopropanecarboxamide dimethyl sulfoxide solvate]
- Animal body weight loss as compared to the treatment start date ([1]; 10 mg/kg, throughout the study): not more than 20%
- Animal deaths ([1]; any of the doses studied (up to 10 mg/kg)): did not cause animal deaths
- IC50 (MEK1): 8.02 nM
- solubility at 24 h [2, 6]: 7000 µg/mL
- solubility at 24 h [2, 7]: 47000 µg/mL
- Solubility in dimethyl sulfoxide relative to Trametinib ([2]; dimethyl sulfoxide, ratio to Trametinib): more than 2 times
- solubility at 24 h [2, 8]: < 1000 µg/mL
- Effect on tumor growth ([3]; 0.3 mg/kg intragastric): no effect on tumor growth
- T/C [3, 9]: 39.5%
- Vavg (average tumor volume) [3, 9]: 834.3 mm^3
- Animals with tumor regression ([3]; 1 mg/kg): three of eight
- T/C [3, 10]: 6.7%
- Vavg (average tumor volume) [3, 10]: 140.5 mm^3
- Animals with tumor regression ([3]; 3 mg/kg): 7/8
- T/C [3, 11]: 4.0%
- Vavg (average tumor volume) [3, 11]: 84.5 mm^3
- Animals with tumor regression ([3]; 10 mg/kg): 8/8
- T/C [3, 12]: 1.2%
- Vavg (average tumor volume) [3, 12]: 26.1 mm^3

SMILES: CC(=O)Nc1cccc(-n2c(=O)n(C3CC3)c(=O)c3c(Nc4ccc(I)cc4F)n(C)c(=O)c(C)c32)c1 [Mekinist, Trametinib dimethyl sulfoxide, reference compound]
- Animal deaths ([1]; 3 mg/kg intragastric for 9 days): two
- LD50 [4]: > 2000 mg/kg
- Animals with tumor regression ([3]; 3 mg/kg intragastric): 100 % animals
- T/C [3, 11]: 1.0%
- Vavg (average tumor volume) [3, 11]: 21.1 mm^3

SMILES: CC(=O)Nc1cccc(-n2c(=O)n(C3CC3)c(=O)c3c(Nc4ccc(I)cc4F)n(C)c(=O)c(C)c32)c1 [Trametinib, reference compound]
- Solubility in aqueous media ([5]; between pH=2 and pH=8): practically insoluble
- Solubility in organic solvents ([5]; organic solvents including highly polar ones): very slightly soluble
- solubility at 24 h [2, 6]: 3000 µg/mL (≈ 4.87 mM)
- solubility at 24 h [2, 7]: 22000 µg/mL (≈ 35.7 mM)
- solubility at 24 h [2, 8]: < 1000 µg/mL

— patent publication US10738049B2, “N-{3-[3-cyclopropyl-5-(2-fluoro-4-iodophenylamino)-6,8-dimethyl-2,4,7-trioxo-3,4,6,7-tetrahydro-2H-pyrido[4,3-D]pyrimidin-1-YL]-phenyl}-cyclopropanecarboxamide dimethyl sulfoxide solvate as an MEK1/2 inhibitor” (R-PHARM JOINT STOCK COMPANY (R-PHARM, JSC), priority 2016, dated 2020)
